The source of these data is patent US6395760B1, “Pesticidal 1-arylpyrazoles” (Rhone-Poulenc Inc., priority 1997, dated 2002).

What all share (parameters): key: ‘X’ means highly active; ‘+’ means moderately active; ‘−’ means low activity
One test deals with Aphis gossypii. The test is described as follows: Soil drench test (systemic activity), aphids on cotton plants. Type of test: in vivo. As to conditions: 10.0 ppm soil concentration by weight, aphid counts at 5 DAT vs untreated control. From the text:
(§1) The Soil Drench Test (Systemic Activity) Cotton and sorghum plants were established in pots. One day prior to treatment, each pot was infested with about 25 aphids of a mixed population. Cotton plants were infested with aphids and sorghum plants were infested with the greenbug. The selected compound of formula (I) was applied to the soil surface in a dilution that delivered the equivalent of 10.0 ppm soil concentration by weight. Aphid counts were obtained at 5 DAT (=days after treatment). The number of aphids on the treated plants was compared to the number of those on the untreated control plants.

The test system of the next test is Schizaphis graminum. The test is described as follows: Soil drench test (systemic activity), greenbug on sorghum plants. The conditions noted are these: 10.0 ppm soil concentration by weight, counts at 5 DAT vs untreated control. It is filed as in vivo.
Source text: as §1

Another test concerns Musca domestica. The test is described as follows: Housefly bait/contact test. It is filed as in vivo. The conditions noted are these: 50 ppm in sugar water bait solution, adult houseflies, mortality after 24 hours. From the text: The Housefly Bait/Contact Test About 25 four to six-day-old adult houseflies were anesthetized and placed in a cage with a sugar water bait solution containing the compound. The concentration of the selected compound of formula (I) in the bait solution was 50 ppm.

For a further test, the system named is A. gossypii. In words: Foliar application (contact test) with aphids. It is filed as in vivo, Aphis gossypii. The conditions noted are these: 100 ppm formulation sprayed to runoff on aphid-infested cotton plants, dead aphids counted three days after treatment. From the text: Foliar Application (Contact Test) with Aphids Aphid-infested cotton plants were placed on a revolving turntable, and sprayed to runoff with a 100 ppm formulation of the selected compound of formula (I). The treated, A. gossypii-infested plants were held for three days after treatment, after which the dead aphids were counted.

As to `CC1(c2nn(-c3c(Cl)cc(C(F)(F)F)cc3Cl)c(N)c2S(C)(=O)=O)SCC[S+]1[O-]` (centres unmarked) [Compound 21], the “Systemic activity on aphids” value with Aphis gossypii was “−”. The “Systemic activity on greenbugs” value with Schizaphis graminum is “−”. Moreover, the “Activity on house flies by contact” value with Musca domestica is reported as “X”. In addition, the “Foliar activity on aphids” value in the test with A. gossypii was “−”.
Take `CC1(c2nn(-c3c(Cl)cc(C(F)(F)F)cc3Cl)c(N)c2S(C)(=O)=O)[S+]([O-])CC[S+]1[O-]` (centres unmarked) [Compound 22]: the “Systemic activity on aphids” value in the test with Aphis gossypii is “X”. The “Systemic activity on greenbugs” value in the test on Schizaphis graminum is “+”. In the test with Musca domestica, the “Activity on house flies by contact” value was “−”. For the same molecule, the “Foliar activity on aphids” value with A. gossypii is “−”.
Consider `C[S+]([O-])c1c(C2(C)OCC(CO)O2)nn(-c2c(Cl)cc(C(F)(F)F)cc2Cl)c1N` (centres unmarked) [Compound 26], for which the “Systemic activity on aphids” value in the test with Aphis gossypii is “−”. The “Systemic activity on greenbugs” value in the test on Schizaphis graminum is recorded as “+”. In addition, the “Activity on house flies by contact” value in the test with Musca domestica is “X”. Besides, the “Foliar activity on aphids” value in the test on A. gossypii is recorded as “−”.
Turning to `CSCC1COC(C)(c2nn(-c3c(Cl)cc(C(F)(F)F)cc3Cl)c(N)c2SC)O1` (centres unmarked) [Compound 27], the “Systemic activity on aphids” value in the test with Aphis gossypii is recorded as “X”. Moreover, the “Systemic activity on greenbugs” value in the test on Schizaphis graminum was “+”. In addition, the “Activity on house flies by contact” value in the test on Musca domestica was “X”. Besides, the “Foliar activity on aphids” value in the test on A. gossypii is on record as “−”.
Take `CSc1c(C2(C)OCC(C[S+](C)[O-])O2)nn(-c2c(Cl)cc(C(F)(F)F)cc2Cl)c1N` (centres unmarked) [Compound 28]: the “Systemic activity on aphids” value in the test with Aphis gossypii is reported as “X”. In addition, the “Systemic activity on greenbugs” value in the test with Schizaphis graminum is reported as “−”. For the same molecule, in the test with Musca domestica, the “Activity on house flies by contact” value is listed as “X”. Further, the “Foliar activity on aphids” value with A. gossypii was “X”.
Take `C[S+]([O-])CC1COC(C)(c2nn(-c3c(Cl)cc(C(F)(F)F)cc3Cl)c(N)c2[S+](C)[O-])O1` (centres unmarked) [Compound 29]: the “Systemic activity on aphids” value in the test with Aphis gossypii is reported as “X”. In addition, the “Systemic activity on greenbugs” value in the test with Schizaphis graminum is on record as “−”. Moreover, in the test on Musca domestica, the “Activity on house flies by contact” value is “X”. The “Foliar activity on aphids” value in the test with A. gossypii is on record as “X”.
In the case of `CCNc1c(S(C)(=O)=O)c(C2(C)OCCO2)nn1-c1c(Cl)cc(C(F)(F)F)cc1Cl` [Compound 34], the “Systemic activity on aphids” value in the test on Aphis gossypii is “X”. In addition, the “Systemic activity on greenbugs” value with Schizaphis graminum is on record as “X”. Also, the “Activity on house flies by contact” value in the test with Musca domestica was “X”. The “Foliar activity on aphids” value in the test with A. gossypii was “X”.
As for `CNc1c(S(C)(=O)=O)c(C2(C)OCCO2)nn1-c1c(Cl)cc(C(F)(F)F)cc1Cl` [Compound 35], the “Systemic activity on aphids” value with Aphis gossypii is on record as “X”. Besides, the “Systemic activity on greenbugs” value with Schizaphis graminum was “X”. Further, the “Activity on house flies by contact” value in the test with Musca domestica was “X”. In the test on A. gossypii, the “Foliar activity on aphids” value is “X”.
